# Test system: Tel-23 (DNA telomeric G4) (DNA, G4) TAGGGTTAGGGTTAGGGTTAGGG
# Experiment: UV melting at 290 nm
# Settings: K+ (KCl 50 mM), NaCac 2.5 mM, pH 6.5, G4 0.472 µM
structure (smiles),measurement,setting,value
CCN1[C]N(Cc2c3ccccc3cc3ccccc23)C=C1.CCN1[C]N(Cc2c3ccccc3cc3ccccc23)C=C1.[Ag+],ΔTm,"CG4/CAg = 1.4, derived from two Tm (60 and 60)",0 °C
CCN1[C]N(Cc2c3ccccc3cc3ccccc23)C=C1.CCN1[C]N(Cc2c3ccccc3cc3ccccc23)C=C1.[Au+],ΔTm,"CG4/CAu = 0.5, derived from two Tm (60 and 57)",-3 °C
